The values that follow come from paper PMC10674403, “Imperatorin Restores Chemosensitivity of Multidrug-Resistant Cancer Cells by Antagonizing ABCG2-Mediated Drug Transport” (Pharmaceuticals, 2023).

In series [1] the target is T1, ABCG2 (Homo sapiens, UniProt Q9UNQ0).
T1 sequence (Q9UNQ0 1-655): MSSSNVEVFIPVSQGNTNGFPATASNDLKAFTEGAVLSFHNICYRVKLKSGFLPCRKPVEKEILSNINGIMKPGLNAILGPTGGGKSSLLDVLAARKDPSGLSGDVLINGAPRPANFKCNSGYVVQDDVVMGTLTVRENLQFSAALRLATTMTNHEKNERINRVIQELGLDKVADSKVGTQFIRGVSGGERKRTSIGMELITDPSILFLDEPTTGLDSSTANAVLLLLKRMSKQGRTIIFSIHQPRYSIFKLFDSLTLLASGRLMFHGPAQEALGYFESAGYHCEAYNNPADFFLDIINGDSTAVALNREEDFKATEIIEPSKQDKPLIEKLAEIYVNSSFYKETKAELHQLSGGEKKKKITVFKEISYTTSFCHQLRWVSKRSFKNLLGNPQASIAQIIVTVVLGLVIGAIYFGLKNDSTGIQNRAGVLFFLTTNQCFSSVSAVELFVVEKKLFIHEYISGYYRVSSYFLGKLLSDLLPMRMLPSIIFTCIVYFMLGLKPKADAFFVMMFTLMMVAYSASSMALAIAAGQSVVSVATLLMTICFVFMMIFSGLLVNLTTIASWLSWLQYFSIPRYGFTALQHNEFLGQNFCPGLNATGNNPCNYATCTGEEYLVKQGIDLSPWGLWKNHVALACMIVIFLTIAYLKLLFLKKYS
Kind of series: Vanadate-sensitive ATPase stimulation in ABCG2 membrane vesicles (Pi release); also inhibition of PhA efflux in ABCG2-transfected HEK293 cells. Format: biochemical. Also noted: membrane vesicles derived from ABCG2 baculovirus-infected High Five insect cells.

Series [2] deals with T1, ABCG2. Kind of series: Fluorescent substrate accumulation/efflux by flow cytometry in ABCG2-expressing versus parental cells. Format: cell-based. Also noted: human ABCG2-transfected R482-HEK293 cells; S1-MI-80 and H460-MX20 cells.

`CC(C)=CCOc1c2occc2cc2ccc(=O)oc12` [IMP, Imperatorin] registered a 50% effective concentration (EC50) on ABCG2 [1] of about 170 nM. On to `C=Cc1c(C)c2cc3nc(c4c5[nH]c(cc6nc(cc1[nH]2)C(C)=C6CC)c(C)c5C(=O)[C@@H]4C(=O)OC)[C@@H](CCC(=O)O)[C@@H]3C` [PhA, pheophorbide A], for which, at ABCG2 [2], the “Fluorescent substrate accumulation/efflux by flow cytometry in ABCG2-expressing” value was “ABCG2-mediated efflux of an ABCG2-specific fluorescent substrate PhA”.
